This note sets out measurements from ChEMBL document CHEMBL1201862, “PubChem BioAssay data set” (2004).

The source made the active and inactive calls.

The target in series [1] is T1, Runt-related transcription factor 1/Core-binding factor subunit beta (Homo sapiens, UniProt Q01196+Q13951). The experiment in a line: disruptors of Runt domain/CBFb-SMMHC interaction – biochemical, FRET, Cerulean-Runt, Venus-CBFb-SMMHC, uHTS, […] (AID 1434). Type of series: protein assay.
In series [2] the target is T1, Runt-related transcription factor 1/Core-binding factor subunit beta. The experiment in a line: Runt domain/CBFb-SMMHC interaction disruptors – biochemical, TR-FRET (AID 1438). The format is protein assay.
Series [3] concerns the target Peroxisome proliferator-activated receptor gamma/Nuclear receptor coactivator 2 (Homo sapiens, UniProt P37231). As to the kind of experiment: TR-FRET dose response biochemical High Throughput Screening assay for agonists of the steroid receptor coactivator 2 (SRC-2) recruitment by the peroxisome proliferator-activated receptor gamma (PPAR gamma): non-selective agonists. [Related pubchem assays: 1297, 1032 ]. The format is functional. (TR-FRET usually uses a lanthanide donor and a delayed reading to cut background.)

Series [4] has as its target Peroxisome proliferator-activated receptor gamma/Nuclear receptor coactivator 3 (Homo sapiens, UniProt P37231). The experiment in a line: TR-FRET dose response biochemical High Throughput Screening assay for agonists of the steroid receptor coactivator 3 (SRC-3) recruitment by the peroxisome proliferator-activated receptor gamma (PPAR gamma): non-selective agonists. [Related pubchem assays: 1301 (Confirmation screen.), 1048 (Primary screen.)]. The format is functional.

For series [5], the target named is Peroxisome proliferator-activated receptor gamma/Nuclear receptor coactivator 1 (Homo sapiens, UniProt P37231). The experiment in a line: TR-FRET dose response biochemical High Throughput Screening assay for agonists of the steroid receptor coactivator 1 (SRC-1) recruitment by the peroxisome proliferator-activated receptor gamma (PPAR gamma): non-selective agonists. [Related pubchem assays (depositor defined):AID1300, AID1808, AID504735, AID631]. Type of series: protein assay.
Sequence of Peroxisome proliferator-activated receptor gamma/Nuclear receptor coactivator 1 (P37231 whole entry): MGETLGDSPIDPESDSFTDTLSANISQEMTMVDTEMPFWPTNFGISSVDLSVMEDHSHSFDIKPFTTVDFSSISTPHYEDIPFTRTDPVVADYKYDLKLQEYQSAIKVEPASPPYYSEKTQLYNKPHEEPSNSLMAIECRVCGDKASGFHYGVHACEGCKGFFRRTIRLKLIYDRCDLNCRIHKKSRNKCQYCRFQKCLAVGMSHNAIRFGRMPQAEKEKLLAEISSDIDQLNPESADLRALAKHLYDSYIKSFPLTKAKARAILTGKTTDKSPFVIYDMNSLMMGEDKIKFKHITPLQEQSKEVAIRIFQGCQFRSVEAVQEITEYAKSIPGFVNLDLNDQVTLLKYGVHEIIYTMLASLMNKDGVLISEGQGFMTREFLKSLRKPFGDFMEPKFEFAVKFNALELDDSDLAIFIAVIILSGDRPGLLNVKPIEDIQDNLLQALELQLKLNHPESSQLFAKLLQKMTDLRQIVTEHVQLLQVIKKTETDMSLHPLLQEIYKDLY
Sequence of Peroxisome proliferator-activated receptor gamma/Nuclear receptor coactivator 1 (Q15788 whole entry, further chain): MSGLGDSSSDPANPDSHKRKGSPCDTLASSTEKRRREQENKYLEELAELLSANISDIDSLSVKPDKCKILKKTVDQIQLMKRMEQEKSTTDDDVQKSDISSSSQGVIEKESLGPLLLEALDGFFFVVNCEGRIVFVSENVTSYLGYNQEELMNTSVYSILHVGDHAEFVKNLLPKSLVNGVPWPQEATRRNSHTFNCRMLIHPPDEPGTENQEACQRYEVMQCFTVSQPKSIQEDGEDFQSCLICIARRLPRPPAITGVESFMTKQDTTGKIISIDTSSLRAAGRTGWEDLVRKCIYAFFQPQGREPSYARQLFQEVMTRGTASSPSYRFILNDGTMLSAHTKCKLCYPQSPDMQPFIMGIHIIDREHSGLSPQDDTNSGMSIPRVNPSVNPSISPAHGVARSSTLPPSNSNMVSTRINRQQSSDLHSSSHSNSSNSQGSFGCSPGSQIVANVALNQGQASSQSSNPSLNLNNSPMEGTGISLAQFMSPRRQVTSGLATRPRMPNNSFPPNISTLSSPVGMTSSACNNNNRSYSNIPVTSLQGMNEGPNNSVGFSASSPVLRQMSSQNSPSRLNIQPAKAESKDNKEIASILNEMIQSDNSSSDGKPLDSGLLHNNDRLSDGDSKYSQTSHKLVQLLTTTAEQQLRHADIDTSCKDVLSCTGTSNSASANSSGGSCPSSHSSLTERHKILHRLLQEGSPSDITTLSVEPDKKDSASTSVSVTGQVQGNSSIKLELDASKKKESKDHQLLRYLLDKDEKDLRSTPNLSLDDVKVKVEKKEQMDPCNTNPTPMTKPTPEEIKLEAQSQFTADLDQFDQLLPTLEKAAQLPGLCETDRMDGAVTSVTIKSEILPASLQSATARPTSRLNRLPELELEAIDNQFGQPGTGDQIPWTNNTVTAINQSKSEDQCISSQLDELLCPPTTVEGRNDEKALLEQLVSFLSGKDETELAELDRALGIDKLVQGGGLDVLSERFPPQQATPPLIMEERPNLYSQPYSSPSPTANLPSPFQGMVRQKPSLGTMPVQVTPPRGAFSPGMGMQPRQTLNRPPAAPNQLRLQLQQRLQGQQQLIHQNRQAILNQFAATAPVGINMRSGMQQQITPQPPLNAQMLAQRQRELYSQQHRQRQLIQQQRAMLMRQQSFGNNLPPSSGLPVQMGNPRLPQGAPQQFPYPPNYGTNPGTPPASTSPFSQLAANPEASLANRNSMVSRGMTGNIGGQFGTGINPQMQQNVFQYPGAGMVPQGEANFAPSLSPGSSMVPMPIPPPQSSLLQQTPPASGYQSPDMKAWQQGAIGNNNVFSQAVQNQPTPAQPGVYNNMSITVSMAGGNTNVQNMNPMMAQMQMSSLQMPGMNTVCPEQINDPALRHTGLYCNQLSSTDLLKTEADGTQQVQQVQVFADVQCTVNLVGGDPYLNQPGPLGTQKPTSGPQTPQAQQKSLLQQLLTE

The next series addresses T2, Exodeoxyribonuclease V (Escherichia coli (strain K12), UniProt P04993+P07648+P08394).
T2 sequence (P04993 whole entry): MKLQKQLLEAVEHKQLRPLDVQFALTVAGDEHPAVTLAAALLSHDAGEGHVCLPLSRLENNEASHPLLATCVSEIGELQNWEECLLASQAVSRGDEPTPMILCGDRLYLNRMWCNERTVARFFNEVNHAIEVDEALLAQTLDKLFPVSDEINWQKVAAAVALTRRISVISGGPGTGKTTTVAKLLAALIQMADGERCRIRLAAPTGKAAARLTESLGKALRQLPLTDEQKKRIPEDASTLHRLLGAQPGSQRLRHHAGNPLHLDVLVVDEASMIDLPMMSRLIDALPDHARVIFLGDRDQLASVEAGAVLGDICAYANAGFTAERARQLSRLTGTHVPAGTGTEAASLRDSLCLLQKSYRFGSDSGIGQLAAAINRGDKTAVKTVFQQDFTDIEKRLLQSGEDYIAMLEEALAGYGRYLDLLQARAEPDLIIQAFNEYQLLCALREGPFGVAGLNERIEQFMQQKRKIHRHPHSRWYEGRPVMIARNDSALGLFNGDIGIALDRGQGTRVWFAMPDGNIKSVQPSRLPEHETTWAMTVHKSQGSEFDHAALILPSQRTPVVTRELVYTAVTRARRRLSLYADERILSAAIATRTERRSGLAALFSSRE
T2 sequence (P07648 whole entry): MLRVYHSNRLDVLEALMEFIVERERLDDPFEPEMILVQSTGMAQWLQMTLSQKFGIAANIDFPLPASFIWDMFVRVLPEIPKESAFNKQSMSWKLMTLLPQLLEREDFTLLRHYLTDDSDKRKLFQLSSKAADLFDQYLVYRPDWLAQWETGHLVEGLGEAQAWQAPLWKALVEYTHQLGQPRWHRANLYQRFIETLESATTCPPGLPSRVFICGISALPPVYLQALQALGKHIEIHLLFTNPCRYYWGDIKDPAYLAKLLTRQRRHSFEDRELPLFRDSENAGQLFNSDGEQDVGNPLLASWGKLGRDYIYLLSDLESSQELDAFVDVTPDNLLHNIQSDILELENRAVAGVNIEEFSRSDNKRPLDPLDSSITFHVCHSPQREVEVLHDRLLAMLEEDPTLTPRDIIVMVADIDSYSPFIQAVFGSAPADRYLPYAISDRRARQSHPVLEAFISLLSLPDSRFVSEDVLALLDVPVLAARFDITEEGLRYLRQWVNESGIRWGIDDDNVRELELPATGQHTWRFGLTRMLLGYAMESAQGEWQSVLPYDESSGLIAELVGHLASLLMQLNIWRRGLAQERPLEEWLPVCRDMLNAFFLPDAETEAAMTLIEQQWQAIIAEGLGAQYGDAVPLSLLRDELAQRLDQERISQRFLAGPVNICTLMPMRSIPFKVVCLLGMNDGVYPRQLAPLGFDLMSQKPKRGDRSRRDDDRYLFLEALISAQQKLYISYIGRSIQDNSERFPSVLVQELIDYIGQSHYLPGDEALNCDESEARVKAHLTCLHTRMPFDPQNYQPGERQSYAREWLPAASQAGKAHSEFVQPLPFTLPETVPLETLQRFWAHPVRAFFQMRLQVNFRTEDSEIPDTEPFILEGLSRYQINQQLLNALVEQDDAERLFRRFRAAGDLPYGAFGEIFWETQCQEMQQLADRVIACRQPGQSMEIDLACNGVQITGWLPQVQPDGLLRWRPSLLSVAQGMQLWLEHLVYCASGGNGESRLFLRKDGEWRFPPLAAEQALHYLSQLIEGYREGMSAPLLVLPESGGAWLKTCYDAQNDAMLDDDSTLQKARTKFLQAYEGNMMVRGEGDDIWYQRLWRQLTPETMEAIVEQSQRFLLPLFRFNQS
T2 sequence (P08394 whole entry): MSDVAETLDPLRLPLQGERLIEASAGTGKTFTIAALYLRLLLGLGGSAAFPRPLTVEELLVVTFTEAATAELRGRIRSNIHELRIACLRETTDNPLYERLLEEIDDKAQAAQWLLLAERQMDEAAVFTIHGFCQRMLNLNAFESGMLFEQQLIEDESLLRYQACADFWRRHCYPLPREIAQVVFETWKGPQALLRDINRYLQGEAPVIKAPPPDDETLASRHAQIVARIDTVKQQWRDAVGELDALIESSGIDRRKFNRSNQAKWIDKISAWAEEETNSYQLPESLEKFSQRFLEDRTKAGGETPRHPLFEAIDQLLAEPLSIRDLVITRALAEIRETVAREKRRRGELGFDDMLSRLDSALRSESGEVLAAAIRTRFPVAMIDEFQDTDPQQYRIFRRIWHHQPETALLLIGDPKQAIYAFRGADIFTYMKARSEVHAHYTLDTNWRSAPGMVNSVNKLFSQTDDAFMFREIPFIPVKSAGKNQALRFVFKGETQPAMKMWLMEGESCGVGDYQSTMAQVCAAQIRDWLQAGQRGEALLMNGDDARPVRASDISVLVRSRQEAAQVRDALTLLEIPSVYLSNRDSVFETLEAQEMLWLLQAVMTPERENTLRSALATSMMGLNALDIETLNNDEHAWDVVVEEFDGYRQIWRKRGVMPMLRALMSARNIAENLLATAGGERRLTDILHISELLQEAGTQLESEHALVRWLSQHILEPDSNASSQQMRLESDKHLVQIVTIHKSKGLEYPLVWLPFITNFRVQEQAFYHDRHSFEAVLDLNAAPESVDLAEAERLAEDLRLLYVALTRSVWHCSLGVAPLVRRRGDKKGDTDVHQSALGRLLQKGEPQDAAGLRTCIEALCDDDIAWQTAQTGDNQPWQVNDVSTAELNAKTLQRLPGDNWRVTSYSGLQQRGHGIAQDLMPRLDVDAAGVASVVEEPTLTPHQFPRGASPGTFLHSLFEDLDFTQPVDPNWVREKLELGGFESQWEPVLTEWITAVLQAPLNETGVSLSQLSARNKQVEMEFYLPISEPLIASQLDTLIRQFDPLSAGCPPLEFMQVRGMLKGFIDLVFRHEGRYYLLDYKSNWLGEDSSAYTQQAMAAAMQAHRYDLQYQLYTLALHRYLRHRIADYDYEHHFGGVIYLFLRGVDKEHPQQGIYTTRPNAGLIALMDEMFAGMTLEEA
As to the kind of experiment: RecBCD inhibition via phage-restricted bacterial growth – absorbance, V66 E. coli, mutant T4 phage, counter-screen for AddAB inhibitor project, dose response (AID 492957). The format is functional, cell-based, Escherichia coli str. K-12 substr. MG1655. In general terms: Counterscreens check selectivity or assay interference.

Series [6] can be described thus: Counterscreen for AddAB inhibitors: absorbance-based bacterial cell-based high throughput dose response assay for inhibitors of bacterial viability. [Related pubchem assays (depositor defined):AID435030, AID449728, AID449731, AID488942, AID488955, AID488956]. Type of series: functional.
Series [7] in a line: THP-1 cell cytotoxicity, dose response, cytotoxicity control for non-replicating M. tuberculosis project (AID 489025). The format is functional.
Series [8] has as its target Glucose-6-phosphate 1-dehydrogenase (Homo sapiens, UniProt P11413). As to the kind of experiment: inhibition of Homo sapiens G6PD, dose series – biochemical, fluorescence, selectivity assay for P. falciparum G6PD inhibitor project, dose response (AID 504792). The format is functional.
Series [9] addresses T3, Mannose-6-phosphate isomerase (Homo sapiens, UniProt P34949).
T3 sequence (P34949 whole entry): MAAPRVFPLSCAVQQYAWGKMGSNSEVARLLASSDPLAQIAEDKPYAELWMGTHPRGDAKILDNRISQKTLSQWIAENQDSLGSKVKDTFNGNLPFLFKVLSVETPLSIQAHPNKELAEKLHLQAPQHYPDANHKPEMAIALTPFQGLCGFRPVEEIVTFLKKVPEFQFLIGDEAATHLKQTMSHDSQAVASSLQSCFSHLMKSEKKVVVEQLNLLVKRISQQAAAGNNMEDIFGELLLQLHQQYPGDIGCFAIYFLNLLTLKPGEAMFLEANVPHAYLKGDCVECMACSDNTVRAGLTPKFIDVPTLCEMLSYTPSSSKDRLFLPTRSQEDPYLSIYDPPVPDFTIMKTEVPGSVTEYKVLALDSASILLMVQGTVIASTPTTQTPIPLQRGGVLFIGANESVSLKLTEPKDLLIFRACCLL
The experiment in a line: MPI enzyme activity inhibition – biochemical, fluorescence intensity, coupled assay, primary screen (AID 1209).

The target of another series is Nonstructural protein 1 (Influenza A virus, UniProt Q194T2). The format is functional, Influenza A virus (A/California/07/2009(H1N1)).
A short description of series [10]: Vero E6 cell cytotoxicity, dose response, cytotoxicity control for non-replicating M. tuberculosis project, secondary assay (AID 492998). Type of series: functional, VeroE6. The settings on record: Vero C1008.
The next series can be described thus: cells. Type of series: functional.
In series [11] the target is T3, Mannose-6-phosphate isomerase. As to the kind of experiment: MPI inhibition at elevated mannose 6-phosphate – biochemical, fluorescence intensity, high mannose 6-phosphate, primary screen (AID 1220).
The next series has as its target Cytochrome P450 2C9 (Homo sapiens, UniProt P11712).
A further series deals with Cytochrome P450 3A4 (Homo sapiens, UniProt P08684).
Sequence of Cytochrome P450 3A4 (P08684 whole entry): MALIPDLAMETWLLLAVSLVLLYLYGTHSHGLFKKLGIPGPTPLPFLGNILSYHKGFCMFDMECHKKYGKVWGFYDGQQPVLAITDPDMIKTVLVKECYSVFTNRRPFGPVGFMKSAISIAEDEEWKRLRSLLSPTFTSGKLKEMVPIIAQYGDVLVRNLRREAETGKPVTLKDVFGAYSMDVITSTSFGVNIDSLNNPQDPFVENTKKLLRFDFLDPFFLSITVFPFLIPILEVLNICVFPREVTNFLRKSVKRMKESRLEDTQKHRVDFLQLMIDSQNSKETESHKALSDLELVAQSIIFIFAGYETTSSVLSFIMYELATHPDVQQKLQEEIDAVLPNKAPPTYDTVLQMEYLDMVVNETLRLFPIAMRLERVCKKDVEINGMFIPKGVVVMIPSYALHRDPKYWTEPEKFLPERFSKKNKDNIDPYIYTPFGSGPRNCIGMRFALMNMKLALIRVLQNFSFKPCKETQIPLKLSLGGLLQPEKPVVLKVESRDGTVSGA
The target in another series is Cytochrome P450 2C19 (Homo sapiens, UniProt P33261). As to the kind of experiment: Cytochrome panel assay with activity outcomes. Panel member name: p450-cyp2c19 Compounds with AC50 equal or less than 10 uM are considered active. Type of series: functional.
The nature of series [12]: A cytotoxicity screen of small molecule inhibitors of the PhoP region in Salmonella typhi identified in the primary screen. [Related pubchem assays: 1850, 1864, 1985 ]. Type of series: functional.
In series [13] the target is Disintegrin and metalloproteinase domain-containing protein 17 (Homo sapiens, UniProt P78536). The experiment in a line: exosite inhibitors of ADAM17, dose response, biochemical (AID 743260).
The next series addresses Paired box protein Pax-8 (Homo sapiens, UniProt Q06710). The experiment in a line: PAX8 transcriptional activity inhibition in RMG-I – RMG-I cells, luciferase, cherry-pick, dose response (AID 687027).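 Note: luciferase reporter driven by Pax8 target thyroperoxidase promoter measured by SteadyGlo luminescence.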 The format is functional, cell-based.

Sequence of Peroxisome proliferator-activated receptor gamma/Nuclear receptor coactivator 3 (P37231 whole entry): as the sequence (P37231 whole entry) above
Sequence of Peroxisome proliferator-activated receptor gamma/Nuclear receptor coactivator 3 (Q9Y6Q9 whole entry, further chain): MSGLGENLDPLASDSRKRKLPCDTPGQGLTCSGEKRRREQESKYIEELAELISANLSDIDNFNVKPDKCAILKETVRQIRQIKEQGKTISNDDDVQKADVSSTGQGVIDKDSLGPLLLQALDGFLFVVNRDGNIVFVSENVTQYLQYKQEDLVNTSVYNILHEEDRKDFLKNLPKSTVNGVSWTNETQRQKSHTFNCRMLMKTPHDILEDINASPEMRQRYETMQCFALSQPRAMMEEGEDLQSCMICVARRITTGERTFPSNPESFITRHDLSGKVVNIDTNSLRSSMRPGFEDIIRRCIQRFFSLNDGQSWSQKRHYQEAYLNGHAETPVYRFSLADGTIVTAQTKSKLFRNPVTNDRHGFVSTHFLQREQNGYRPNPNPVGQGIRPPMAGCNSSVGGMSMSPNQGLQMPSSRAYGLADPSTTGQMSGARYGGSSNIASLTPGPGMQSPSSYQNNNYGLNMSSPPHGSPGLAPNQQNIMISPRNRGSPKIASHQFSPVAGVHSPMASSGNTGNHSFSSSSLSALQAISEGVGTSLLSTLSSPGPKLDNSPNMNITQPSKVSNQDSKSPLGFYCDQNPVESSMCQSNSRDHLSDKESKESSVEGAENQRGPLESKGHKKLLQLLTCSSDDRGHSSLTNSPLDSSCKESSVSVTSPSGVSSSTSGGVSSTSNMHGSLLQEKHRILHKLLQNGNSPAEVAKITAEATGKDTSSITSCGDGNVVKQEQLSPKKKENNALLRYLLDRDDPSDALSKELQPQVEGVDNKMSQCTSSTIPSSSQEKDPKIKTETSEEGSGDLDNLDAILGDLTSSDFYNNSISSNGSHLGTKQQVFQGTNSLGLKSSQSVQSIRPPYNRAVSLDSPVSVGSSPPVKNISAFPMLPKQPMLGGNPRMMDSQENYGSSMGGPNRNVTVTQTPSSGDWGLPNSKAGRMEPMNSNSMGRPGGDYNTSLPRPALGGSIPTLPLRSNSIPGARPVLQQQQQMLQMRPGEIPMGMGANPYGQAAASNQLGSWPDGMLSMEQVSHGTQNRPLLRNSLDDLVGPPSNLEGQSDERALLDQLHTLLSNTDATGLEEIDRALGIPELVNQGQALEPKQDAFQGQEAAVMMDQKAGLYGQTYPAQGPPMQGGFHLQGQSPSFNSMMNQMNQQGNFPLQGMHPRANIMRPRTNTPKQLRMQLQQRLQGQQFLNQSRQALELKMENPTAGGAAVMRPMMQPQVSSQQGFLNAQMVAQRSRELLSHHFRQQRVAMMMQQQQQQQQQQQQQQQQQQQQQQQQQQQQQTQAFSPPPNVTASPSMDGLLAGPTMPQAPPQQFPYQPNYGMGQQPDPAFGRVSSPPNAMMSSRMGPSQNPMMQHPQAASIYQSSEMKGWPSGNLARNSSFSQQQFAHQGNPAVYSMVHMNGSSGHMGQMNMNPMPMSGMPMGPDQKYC
T1 sequence (Q01196 whole entry, the tested form may be a part): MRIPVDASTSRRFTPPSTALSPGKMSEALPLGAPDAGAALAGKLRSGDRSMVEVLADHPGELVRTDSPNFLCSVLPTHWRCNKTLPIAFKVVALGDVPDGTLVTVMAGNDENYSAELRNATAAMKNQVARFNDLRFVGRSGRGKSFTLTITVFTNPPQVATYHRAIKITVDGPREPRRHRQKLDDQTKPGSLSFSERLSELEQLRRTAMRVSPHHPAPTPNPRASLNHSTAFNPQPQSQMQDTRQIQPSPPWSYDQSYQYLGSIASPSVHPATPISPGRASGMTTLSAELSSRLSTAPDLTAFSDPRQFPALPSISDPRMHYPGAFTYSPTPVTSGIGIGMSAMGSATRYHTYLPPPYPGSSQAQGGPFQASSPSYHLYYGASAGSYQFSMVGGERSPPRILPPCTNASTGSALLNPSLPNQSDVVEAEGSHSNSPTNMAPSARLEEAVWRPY
T1 sequence (Q13951 whole entry, the tested form may be a part): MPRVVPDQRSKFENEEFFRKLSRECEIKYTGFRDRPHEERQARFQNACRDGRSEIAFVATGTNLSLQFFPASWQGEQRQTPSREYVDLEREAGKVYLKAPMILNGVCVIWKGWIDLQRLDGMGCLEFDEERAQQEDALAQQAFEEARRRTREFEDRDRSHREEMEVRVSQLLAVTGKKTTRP

Take `CCCOc1ccc(C2C(C(=O)OC)=CN(CCOC)C=C2C(=O)OC)cc1`: the IC50 was 2.22 µM (active) in series [1] and > 100 µM (inactive) in series [2].
Turning to `Cc1cccc[n+]1C1C(c2ccccc2)C(C#N)=C([C-](C#N)C#N)NC1(O)C1CC1` (stereo unspecified), the EC50 in [3] is > 79.4 µM (not active); in series [4], > 79.4 µM (not active); in [5], > 79.4 µM (inactive).
As to `Cc1cc2nc(-c3ccc(SCc4ccccc4C#N)nc3)[nH]c2cc1C`, the EC50 in series [3] is > 79.4 µM (not active); in series [4], > 79.4 µM (not active); in [5], > 79.4 µM (inactive).
With `FC(F)Oc1ccc(NC(S)=NCc2nc3ccccc3[nH]2)cc1`, the IC50 (on Exodeoxyribonuclease V; in [6]) was > 119 µM (inactive) each time.
For `C/[N+]([O-])=C\c1ccc2cccc(O)c2n1`, the CC50 is 35 µM (active) in series [7] and 15.6 µM (active) in [10]. The IC50 in series [8] was > 80 µM (inactive); in series [9] it was 16.4 µM (active); on Nonstructural protein 1, 1.68 µM (active); in “cells”, 11.6 µM (active); in [11], 11.8 µM (active).
In the case of `Cc1ccc(S(=O)(=O)NCC2CCC(C(=O)O)CC2)cc1` (stereo unspecified), the AC50 at Cytochrome P450 2C9 is 0.1 µM (inconclusive); at Cytochrome P450 3A4, “inconclusive”.
Consider `COc1ccccc1NC(=O)N1CCC(c2nnc(SCC(N)=O)n2C)CC1`, for which the AC50 entry on Cytochrome P450 2C19 and at Cytochrome P450 3A4 was “inconclusive” in each case.
For `Oc1ccc(/N=C/c2ccc(-c3cccs3)s2)cc1`, the figures for the IC50 in [1] and in series [2] were 4.2 µM (active) and > 100 µM (inactive), respectively. Moreover, the EC50 in series [3] was 12 µM (not active); in series [4], 73 µM (not active); in series [5], 8.81 µM (active).
In the case of `CCCCCC(CC(=O)NO)C(=O)NC(C(=O)N1CCCC1CO)C(C)C` (stereo unspecified), the EC50 in [12] is > 50 µM (active). The IC50 is > 39.5 µM (inactive) on Exodeoxyribonuclease V, 3.59 µM (active) in series [13] and 77.6 µM (inactive) in series [6]. For the same compound, the AC50 at Paired box protein Pax-8 is 5.27 µM (active).

Usually IC50 stands for the concentration that inhibits the measured activity by half. As usually defined, the EC50 is the midpoint of the concentration-response curve. The CC50 is the concentration that lowers cell viability or growth by half. The term AC50 denotes the midpoint of the concentration-response curve, whichever way the signal moves.
